Results reported in ChEMBL document CHEMBL1148186, “Structure of Benthophoenin, a New Free Radical Scavenger Produced by Streptomyces prunicolor” (J Nat Prod, 1993).
≈ marks a conversion by molar mass, not a printed value.

Tests used:
[1] = Antioxidant activity assessed as inhibition of AAPH-induced rat erythrocytes hemolysis; type: functional, cell-based; details: erythrocyte
[2] = Antioxidant activity assessed as free radical scavenging activity; type: functional

Row | IC50 [2] [µg/mL] | Compound | IC50 [1] [µg/mL]
1 | 0.15 (≈ 0.263 µM) | CC(C)=CCC/C(C)=C/CN1c2cc(C(=O)c3ccccc3)ccc2Nc2c(C(=O)O)cc(C(=O)c3ccccc3)cc21 [BENTHOPHOENIN] | 0.8 (≈ 1.4 µM)
2 | 10.8 | VITAMIN E | –
